Results: the supplement of paper PMC8882468

system: HCI-001 (organoid from a triple-negative breast cancer xenograft); assay: CTG-3D luminescence at 96 h relative to day-0 seeding control (ratio to day 0); higher = more growth / less cytotoxicity; PDxO 3D drug screen, 96 h, CTG-3D normalised to day-0 seeding control.; conditions: 0.1 µM; days in culture: 346

| Compound | CTG-3D luminescence at 96 h |
| --- | --- |
| COc1cccc2c1C(=O)c1c(O)c3c(c(O)c1C2=O)C[C@@](O)(C(=O)CO)C[C@@H]3O[C@H]1C[C@H](N)[C@H](O)[C@H](C)O1 [doxorubicin] | 1.01 |
| O=C(O)C1(C(=O)O)CCC1.[NH2-].[NH2-].[Pt+2] [carboplatin] | 1.02 |
| NC(=O)Nc1cc(-c2cccc(F)c2)sc1C(=O)N[C@H]1CCCNC1 [AZD7762] | 0.907 |
| Nc1ccn([C@@H]2O[C@H](CO)[C@@H](O)C2(F)F)c(=O)n1 [gemcitabine] | 0.33 |
| CC1(C)CCC(c2ccc(Cl)cc2)=C(CN2CCN(c3ccc(C(=O)NS(=O)(=O)c4ccc(N[C@H](CCN5CCOCC5)CSc5ccccc5)c(S(=O)(=O)C(F)(F)F)c4)cc3)CC2)C1 [navitoclax] | 1.24 |
| CN(Cc1cnc2nc(N)nc(N)c2n1)c1ccc(C(=O)N[C@@H](CCC(=O)O)C(=O)O)cc1 [methotrexate] | 1.02 |
| C=CCn1c(=O)c2cnc(Nc3ccc(N4CCN(C)CC4)cc3)nc2n1-c1cccc(C(C)(C)O)n1 [adavosertib] | 1.52 |
| CC(C)(C(=O)NCC(F)(F)C(F)(F)F)C(=O)N[C@@H]1C(=O)Nc2ccccc2-c2ccccc21 | 1.11 |
| C[C@@H]1COCCN1c1cc(C2([S@](C)(=N)=O)CC2)nc(-c2cc[nH]c3nccc2-3)n1 [ceralasertib] | 1.3 |
| CCN1CCN(Cc2ccc(Nc3ncc(F)c(-c4cc(F)c5nc(C)n(C(C)C)c5c4)n3)nc2)CC1 [abemaciclib] | 1.14 |

same assay, conditions: 0.1 µM; days in culture: 364

| Compound | CTG-3D luminescence at 96 h |
| --- | --- |
| COc1cccc2c1C(=O)c1c(O)c3c(c(O)c1C2=O)C[C@@](O)(C(=O)CO)C[C@@H]3O[C@H]1C[C@H](N)[C@H](O)[C@H](C)O1 [doxorubicin] | 0.946 |
| O=C(O)C1(C(=O)O)CCC1.[NH2-].[NH2-].[Pt+2] [carboplatin] | 0.839 |
| NC(=O)Nc1cc(-c2cccc(F)c2)sc1C(=O)N[C@H]1CCCNC1 [AZD7762] | 1.03 |
| Nc1ccn([C@@H]2O[C@H](CO)[C@@H](O)C2(F)F)c(=O)n1 [gemcitabine] | 0.275 |
| CC1(C)CCC(c2ccc(Cl)cc2)=C(CN2CCN(c3ccc(C(=O)NS(=O)(=O)c4ccc(N[C@H](CCN5CCOCC5)CSc5ccccc5)c(S(=O)(=O)C(F)(F)F)c4)cc3)CC2)C1 [navitoclax] | 1.17 |
| CN(Cc1cnc2nc(N)nc(N)c2n1)c1ccc(C(=O)N[C@@H](CCC(=O)O)C(=O)O)cc1 [methotrexate] | 0.891 |
| C=CCn1c(=O)c2cnc(Nc3ccc(N4CCN(C)CC4)cc3)nc2n1-c1cccc(C(C)(C)O)n1 [adavosertib] | 1.17 |
| CC(C)(C(=O)NCC(F)(F)C(F)(F)F)C(=O)N[C@@H]1C(=O)Nc2ccccc2-c2ccccc21 | 1.09 |
| C[C@@H]1COCCN1c1cc(C2([S@](C)(=N)=O)CC2)nc(-c2cc[nH]c3nccc2-3)n1 [ceralasertib] | 1.16 |
| CCN1CCN(Cc2ccc(Nc3ncc(F)c(-c4cc(F)c5nc(C)n(C(C)C)c5c4)n3)nc2)CC1 [abemaciclib] | 0.914 |

same assay, conditions: 1 µM; days in culture: 240

| Compound | CTG-3D luminescence at 96 h |
| --- | --- |
| COc1cccc2c1C(=O)c1c(O)c3c(c(O)c1C2=O)C[C@@](O)(C(=O)CO)C[C@@H]3O[C@H]1C[C@H](N)[C@H](O)[C@H](C)O1 [doxorubicin] | 0.795 |
| O=C(O)C1(C(=O)O)CCC1.[NH2-].[NH2-].[Pt+2] [carboplatin] | 1.63 |
| NC(=O)Nc1cc(-c2cccc(F)c2)sc1C(=O)N[C@H]1CCCNC1 [AZD7762] | 0.663 |
| Nc1ccn([C@@H]2O[C@H](CO)[C@@H](O)C2(F)F)c(=O)n1 [gemcitabine] | 0.86 |
| CC1(C)CCC(c2ccc(Cl)cc2)=C(CN2CCN(c3ccc(C(=O)NS(=O)(=O)c4ccc(N[C@H](CCN5CCOCC5)CSc5ccccc5)c(S(=O)(=O)C(F)(F)F)c4)cc3)CC2)C1 [navitoclax] | 1.1 |
| CN(Cc1cnc2nc(N)nc(N)c2n1)c1ccc(C(=O)N[C@@H](CCC(=O)O)C(=O)O)cc1 [methotrexate] | 1.26 |
| C=CCn1c(=O)c2cnc(Nc3ccc(N4CCN(C)CC4)cc3)nc2n1-c1cccc(C(C)(C)O)n1 [adavosertib] | 0.618 |
| CC(C)(C(=O)NCC(F)(F)C(F)(F)F)C(=O)N[C@@H]1C(=O)Nc2ccccc2-c2ccccc21 | 1.16 |
| C[C@@H]1COCCN1c1cc(C2([S@](C)(=N)=O)CC2)nc(-c2cc[nH]c3nccc2-3)n1 [ceralasertib] | 1.11 |
| CCN1CCN(Cc2ccc(Nc3ncc(F)c(-c4cc(F)c5nc(C)n(C(C)C)c5c4)n3)nc2)CC1 [abemaciclib] | 1.37 |

same assay, conditions: 1 µM; days in culture: 260

| Compound | CTG-3D luminescence at 96 h |
| --- | --- |
| COc1cccc2c1C(=O)c1c(O)c3c(c(O)c1C2=O)C[C@@](O)(C(=O)CO)C[C@@H]3O[C@H]1C[C@H](N)[C@H](O)[C@H](C)O1 [doxorubicin] | 0.863 |
| O=C(O)C1(C(=O)O)CCC1.[NH2-].[NH2-].[Pt+2] [carboplatin] | 1.41 |
| NC(=O)Nc1cc(-c2cccc(F)c2)sc1C(=O)N[C@H]1CCCNC1 [AZD7762] | 0.787 |
| Nc1ccn([C@@H]2O[C@H](CO)[C@@H](O)C2(F)F)c(=O)n1 [gemcitabine] | 0.617 |
| CC1(C)CCC(c2ccc(Cl)cc2)=C(CN2CCN(c3ccc(C(=O)NS(=O)(=O)c4ccc(N[C@H](CCN5CCOCC5)CSc5ccccc5)c(S(=O)(=O)C(F)(F)F)c4)cc3)CC2)C1 [navitoclax] | 1.58 |
| CN(Cc1cnc2nc(N)nc(N)c2n1)c1ccc(C(=O)N[C@@H](CCC(=O)O)C(=O)O)cc1 [methotrexate] | 1.43 |
| C=CCn1c(=O)c2cnc(Nc3ccc(N4CCN(C)CC4)cc3)nc2n1-c1cccc(C(C)(C)O)n1 [adavosertib] | 1.04 |
| CC(C)(C(=O)NCC(F)(F)C(F)(F)F)C(=O)N[C@@H]1C(=O)Nc2ccccc2-c2ccccc21 | 1.44 |
| C[C@@H]1COCCN1c1cc(C2([S@](C)(=N)=O)CC2)nc(-c2cc[nH]c3nccc2-3)n1 [ceralasertib] | 1.19 |
| CCN1CCN(Cc2ccc(Nc3ncc(F)c(-c4cc(F)c5nc(C)n(C(C)C)c5c4)n3)nc2)CC1 [abemaciclib] | 1.37 |

same assay, conditions: 1 µM; days in culture: 269

| Compound | CTG-3D luminescence at 96 h |
| --- | --- |
| COc1cccc2c1C(=O)c1c(O)c3c(c(O)c1C2=O)C[C@@](O)(C(=O)CO)C[C@@H]3O[C@H]1C[C@H](N)[C@H](O)[C@H](C)O1 [doxorubicin] | 0.478 |
| O=C(O)C1(C(=O)O)CCC1.[NH2-].[NH2-].[Pt+2] [carboplatin] | 1.83 |
| NC(=O)Nc1cc(-c2cccc(F)c2)sc1C(=O)N[C@H]1CCCNC1 [AZD7762] | 0.48 |
| Nc1ccn([C@@H]2O[C@H](CO)[C@@H](O)C2(F)F)c(=O)n1 [gemcitabine] | 0.42 |
| CC1(C)CCC(c2ccc(Cl)cc2)=C(CN2CCN(c3ccc(C(=O)NS(=O)(=O)c4ccc(N[C@H](CCN5CCOCC5)CSc5ccccc5)c(S(=O)(=O)C(F)(F)F)c4)cc3)CC2)C1 [navitoclax] | 0.942 |
| CN(Cc1cnc2nc(N)nc(N)c2n1)c1ccc(C(=O)N[C@@H](CCC(=O)O)C(=O)O)cc1 [methotrexate] | 1.46 |
| C=CCn1c(=O)c2cnc(Nc3ccc(N4CCN(C)CC4)cc3)nc2n1-c1cccc(C(C)(C)O)n1 [adavosertib] | 0.496 |
| CC(C)(C(=O)NCC(F)(F)C(F)(F)F)C(=O)N[C@@H]1C(=O)Nc2ccccc2-c2ccccc21 | 1.67 |
| C[C@@H]1COCCN1c1cc(C2([S@](C)(=N)=O)CC2)nc(-c2cc[nH]c3nccc2-3)n1 [ceralasertib] | 1.06 |
| CCN1CCN(Cc2ccc(Nc3ncc(F)c(-c4cc(F)c5nc(C)n(C(C)C)c5c4)n3)nc2)CC1 [abemaciclib] | 1.17 |

same assay, conditions: 1 µM; days in culture: 327

| Compound | CTG-3D luminescence at 96 h |
| --- | --- |
| COc1cccc2c1C(=O)c1c(O)c3c(c(O)c1C2=O)C[C@@](O)(C(=O)CO)C[C@@H]3O[C@H]1C[C@H](N)[C@H](O)[C@H](C)O1 [doxorubicin] | 1.18 |
| O=C(O)C1(C(=O)O)CCC1.[NH2-].[NH2-].[Pt+2] [carboplatin] | 1.53 |
| NC(=O)Nc1cc(-c2cccc(F)c2)sc1C(=O)N[C@H]1CCCNC1 [AZD7762] | 0.567 |
| Nc1ccn([C@@H]2O[C@H](CO)[C@@H](O)C2(F)F)c(=O)n1 [gemcitabine] | 0.506 |
| CC1(C)CCC(c2ccc(Cl)cc2)=C(CN2CCN(c3ccc(C(=O)NS(=O)(=O)c4ccc(N[C@H](CCN5CCOCC5)CSc5ccccc5)c(S(=O)(=O)C(F)(F)F)c4)cc3)CC2)C1 [navitoclax] | 0.963 |
| CN(Cc1cnc2nc(N)nc(N)c2n1)c1ccc(C(=O)N[C@@H](CCC(=O)O)C(=O)O)cc1 [methotrexate] | 0.877 |
| C=CCn1c(=O)c2cnc(Nc3ccc(N4CCN(C)CC4)cc3)nc2n1-c1cccc(C(C)(C)O)n1 [adavosertib] | 1.18 |
| CC(C)(C(=O)NCC(F)(F)C(F)(F)F)C(=O)N[C@@H]1C(=O)Nc2ccccc2-c2ccccc21 | 1.29 |
| C[C@@H]1COCCN1c1cc(C2([S@](C)(=N)=O)CC2)nc(-c2cc[nH]c3nccc2-3)n1 [ceralasertib] | 1.36 |
| CCN1CCN(Cc2ccc(Nc3ncc(F)c(-c4cc(F)c5nc(C)n(C(C)C)c5c4)n3)nc2)CC1 [abemaciclib] | 1.36 |

same assay, conditions: 1 µM; days in culture: 346

| Compound | CTG-3D luminescence at 96 h |
| --- | --- |
| COc1cccc2c1C(=O)c1c(O)c3c(c(O)c1C2=O)C[C@@](O)(C(=O)CO)C[C@@H]3O[C@H]1C[C@H](N)[C@H](O)[C@H](C)O1 [doxorubicin] | 0.949 |
| O=C(O)C1(C(=O)O)CCC1.[NH2-].[NH2-].[Pt+2] [carboplatin] | 1.47 |
| NC(=O)Nc1cc(-c2cccc(F)c2)sc1C(=O)N[C@H]1CCCNC1 [AZD7762] | 0.392 |
| Nc1ccn([C@@H]2O[C@H](CO)[C@@H](O)C2(F)F)c(=O)n1 [gemcitabine] | 0.429 |
| CC1(C)CCC(c2ccc(Cl)cc2)=C(CN2CCN(c3ccc(C(=O)NS(=O)(=O)c4ccc(N[C@H](CCN5CCOCC5)CSc5ccccc5)c(S(=O)(=O)C(F)(F)F)c4)cc3)CC2)C1 [navitoclax] | 1.3 |
| CN(Cc1cnc2nc(N)nc(N)c2n1)c1ccc(C(=O)N[C@@H](CCC(=O)O)C(=O)O)cc1 [methotrexate] | 0.965 |
| C=CCn1c(=O)c2cnc(Nc3ccc(N4CCN(C)CC4)cc3)nc2n1-c1cccc(C(C)(C)O)n1 [adavosertib] | 1.48 |
| CC(C)(C(=O)NCC(F)(F)C(F)(F)F)C(=O)N[C@@H]1C(=O)Nc2ccccc2-c2ccccc21 | 1.26 |
| C[C@@H]1COCCN1c1cc(C2([S@](C)(=N)=O)CC2)nc(-c2cc[nH]c3nccc2-3)n1 [ceralasertib] | 1.02 |
| CCN1CCN(Cc2ccc(Nc3ncc(F)c(-c4cc(F)c5nc(C)n(C(C)C)c5c4)n3)nc2)CC1 [abemaciclib] | 1.17 |

same assay, conditions: 1 µM; days in culture: 364

| Compound | CTG-3D luminescence at 96 h |
| --- | --- |
| COc1cccc2c1C(=O)c1c(O)c3c(c(O)c1C2=O)C[C@@](O)(C(=O)CO)C[C@@H]3O[C@H]1C[C@H](N)[C@H](O)[C@H](C)O1 [doxorubicin] | 0.616 |
| O=C(O)C1(C(=O)O)CCC1.[NH2-].[NH2-].[Pt+2] [carboplatin] | 1.01 |
| NC(=O)Nc1cc(-c2cccc(F)c2)sc1C(=O)N[C@H]1CCCNC1 [AZD7762] | 0.466 |
| Nc1ccn([C@@H]2O[C@H](CO)[C@@H](O)C2(F)F)c(=O)n1 [gemcitabine] | 0.401 |
| CC1(C)CCC(c2ccc(Cl)cc2)=C(CN2CCN(c3ccc(C(=O)NS(=O)(=O)c4ccc(N[C@H](CCN5CCOCC5)CSc5ccccc5)c(S(=O)(=O)C(F)(F)F)c4)cc3)CC2)C1 [navitoclax] | 1.17 |
